Measurements reported in patent US20260374756A1, “HETEROCYCLIC COMPOUNDS AS INHIBITORS OF MONOACYLGLYCEROL LIPASE (MAGL)” (Hoffmann-La Roche Inc., priority 2022, published 2026).

Target: T1, hMAGL (Homo sapiens, UniProt Q99685)
T1 sequence (Q99685 1-303): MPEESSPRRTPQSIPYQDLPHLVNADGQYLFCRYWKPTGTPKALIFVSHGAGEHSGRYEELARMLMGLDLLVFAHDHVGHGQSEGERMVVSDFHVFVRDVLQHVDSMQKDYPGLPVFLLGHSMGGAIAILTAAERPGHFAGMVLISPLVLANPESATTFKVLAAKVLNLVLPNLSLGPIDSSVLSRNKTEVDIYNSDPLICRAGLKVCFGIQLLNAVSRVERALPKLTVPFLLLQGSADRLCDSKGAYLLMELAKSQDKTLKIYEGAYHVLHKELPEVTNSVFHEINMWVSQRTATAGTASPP
Test: 2-AG assay: MAGL inhibition, hydrolysis of 2-arachidonoylglycerol to arachidonic acid followed by mass spectrometry
Assay type: biochemical
In short: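 Read-out is LC-MS/MS of arachidonic acid released from 2-arachidonoylglycerol (8 μM final), normalised to d8-arachidonic acid internal standard after acetonitrile quench. Enzyme […] and compound were pre-mixed 15 min, then reacted 30 min, both at RT, in Tris/EDTA buffer with 0.01% Tween-20 and 2.5% DMSO.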

SMILES | IC50 [nM]
O=C(N1CC2(CC(c3cc(C4CC4)n[nH]3)C2)C1)N1CC2(CN(Cc3nc(C(F)(F)F)no3)C2)C1 [Example 171, [6-(3-cyclopropyl-1H-pyrazol-5-yl)-2-azaspiro[3.3]heptan-2-yl]-[6-[[3-(trifluoromethyl)-1,2,4-oxadiazol-5-yl]methyl]-2,6-diazaspiro[3.3]heptan-2-yl]methanone] | 9.95
O=C(N1CC2(CC(Cn3cnc(C(F)(F)F)n3)C2)C1)N1CC2(CC(c3cc(C4CC4)n[nH]3)C2)C1 [Example 126, [6-(3-cyclopropyl-1H-pyrazol-5-yl)-2-azaspiro[3.3]heptan-2-yl]-[6-[[3-(trifluoromethyl)-1,2,4-triazol-1-yl]methyl]-2-azaspiro[3.3]heptan-2-yl]methanone] | 0.78
O=C(N1CC2(CC(n3cnc(C(F)(F)F)n3)C2)C1)N1CC2(CN(Cc3nc(C(F)(F)F)no3)C2)C1 [Example 172, [6-[[3-(trifluoromethyl)-1,2,4-oxadiazol-5-yl]methyl]-2,6-diazaspiro[3.3]heptan-2-yl]-[6-[3-(trifluoromethyl)-1,2,4-triazol-1-yl]-2-azaspiro[3.3]heptan-2-yl]methanone] | 55
CCn1nc(C(F)(F)F)cc1CN1CC2(C1)CN(C(=O)N1CC3(CC(n4cnc(C5CC5)n4)C3)C1)C2 [Example 170, [6-(3-cyclopropyl-1,2,4-triazol-1-yl)-2-azaspiro[3.3]heptan-2-yl]-[6-[[2-ethyl-5-(trifluoromethyl)pyrazol-3-yl]methyl]-2,6-diazaspiro[3.3]heptan-2-yl]methanone] | 2.23
O=C(N1CC2(CC(n3cnc(C4CC4)n3)C2)C1)N1CC2(CN(Cc3ncc(C(F)(F)F)s3)C2)C1 [Example 150, [6-(3-cyclopropyl-1,2,4-triazol-1-yl)-2-azaspiro[3.3]heptan-2-yl]-[6-[[5-(trifluoromethyl)thiazol-2-yl]methyl]-2,6-diazaspiro[3.3]heptan-2-yl]methanone] | 1.52
Cc1nn(CC(F)(F)F)cc1CN1CC2(C1)CN(C(=O)N1CC3(CC(n4cnc(C5CC5)n4)C3)C1)C2 [Example 113, [6-(3-cyclopropyl-1,2,4-triazol-1-yl)-2-azaspiro[3.3]heptan-2-yl]-[6-[[3-methyl-1-(2,2,2-trifluoroethyl)pyrazol-4-yl]methyl]-2,6-diazaspiro[3.3]heptan-2-yl]methanone] | 133
O=C(N1CC2(CC(n3cnc(C(F)(F)F)n3)C2)C1)N1CC2(CN(Cc3cc(C(F)(F)F)on3)C2)C1 [Example 189, [6-[[5-(trifluoromethyl)isoxazol-3-yl]methyl]-2,6-diazaspiro[3.3]heptan-2-yl]-[6-[3-(trifluoromethyl)-1,2,4-triazol-1-yl]-2-azaspiro[3.3]heptan-2-yl]methanone] | 50.1
O=C(N1CC2(CCN(Cc3cc(C(F)(F)F)sn3)CC2)C1)N1CC2(CC(n3cnc(C(F)(F)F)n3)C2)C1 [Example 46, [7-[[5-(trifluoromethyl)isothiazol-3-yl]methyl]-2,7-diazaspiro[3.5]nonan-2-yl]-[6-[3-(trifluoromethyl)-1,2,4-triazol-1-yl]-2-azaspiro[3.3]heptan-2-yl]methanone] | 11
Cc1cc(C(F)(F)F)nn1CC1CC2(C1)CN(C(=O)N1CC3(CC(n4cnc(C(F)(F)F)n4)C3)C1)C2 [Example 68, [6-[[5-methyl-3-(trifluoromethyl)pyrazol-1-yl]methyl]-2-azaspiro[3.3]heptan-2-yl]-[6-[3-(trifluoromethyl)-1,2,4-triazol-1-yl]-2-azaspiro[3.3]heptan-2-yl]methanone] | 5.8
Cc1sc(CN2CC3(C2)CN(C(=O)N2CC4(CC(n5cnc(C(F)(F)F)n5)C4)C2)C3)nc1C(F)(F)F [Example 54, [6-[[5-methyl-4-(trifluoromethyl)thiazol-2-yl]methyl]-2,6-diazaspiro[3.3]heptan-2-yl]-[6-[3-(trifluoromethyl)-1,2,4-triazol-1-yl]-2-azaspiro[3.3]heptan-2-yl]methanone] | 85.7
Cc1sc(CN2CC3(C2)CN(C(=O)N2CC4(CC(n5cnc(C6CC6)n5)C4)C2)C3)nc1C(F)(F)F [Example 55, [6-(3-cyclopropyl-1,2,4-triazol-1-yl)-2-azaspiro[3.3]heptan-2-yl]-[6-[[5-methyl-4-(trifluoromethyl)thiazol-2-yl]methyl]-2,6-diazaspiro[3.3]heptan-2-yl]methanone] | 11.8
O=C(N1CC2(CC(Cn3cc(C(F)(F)F)cn3)C2)C1)N1CC2(CC(n3cnc(C4(O)CC4)n3)C2)C1 [Example 12] | 8.67
O=C(N1CC2(CC(n3cnc(C(F)(F)F)n3)C2)C1)N1CC2(CN(Cc3cn(CC(F)(F)F)nn3)C2)C1 [Example 107, [6-[[1-(2,2,2-trifluoroethyl)triazol-4-yl]methyl]-2,6-diazaspiro[3.3]heptan-2-yl]-[6-[3-(trifluoromethyl)-1,2,4-triazol-1-yl]-2-azaspiro[3.3]heptan-2-yl]methanone] | 2670
O=C(N1CC2(CC(n3cnc(C4CC4)n3)C2)C1)N1CC2(CN(Cc3cnn(C(F)(F)F)c3)C2)C1 [Example 182, [6-(3-cyclopropyl-1,2,4-triazol-1-yl)-2-azaspiro[3.3]heptan-2-yl]-[6-[[1-(trifluoromethyl)pyrazol-4-yl]methyl]-2,6-diazaspiro[3.3]heptan-2-yl]methanone] | 33.9
O=C(N1CC2(CC(Oc3nc(C(F)(F)F)cs3)C2)C1)N1CC2(CC(n3cnc(C4(O)CC4)n3)C2)C1 [Example 13, [6-[3-(1-hydroxycyclopropyl)-1,2,4-triazol-1-yl]-2-azaspiro[3.3]heptan-2-yl]-[6-[4-(trifluoromethyl)thiazol-2-yl]oxy-2-azaspiro[3.3]heptan-2-yl]methanone] | 14.9
O=C(N1CC2(CC(Cc3n[nH]c(C4(C(F)(F)F)CC4)n3)C2)C1)N1CC2(CC(n3cnc(C(F)(F)F)n3)C2)C1 [Example 101, [6-[[5-[1-(trifluoromethyl)cyclopropyl]-1H-1,2,4-triazol-3-yl]methyl]-2-azaspiro[3.3]heptan-2-yl]-[6-[3-(trifluoromethyl)-1,2,4-triazol-1-yl]-2-azaspiro[3.3]heptan-2-yl]methanone] | 0.89
O=C(N1CC2(CC(n3cnc(C4(O)CC4)n3)C2)C1)N1CC2(CN(Cc3nc(C(F)(F)F)cs3)C2)C1 [Example 52] | 138

More lines, now with the values ahead:

IC50 [nM] | SMILES
5.28 | CC(C)(C)c1nnc(CN2CC3(C2)CN(C(=O)N2CC4(CC(n5cnc(C6CC6)n5)C4)C2)C3)s1 [Example 209, [6-[(5-tert-butyl-1,3,4-thiadiazol-2-yl)methyl]-2,6-diazaspiro[3.3]heptan-2-yl]-[6-(3-cyclopropyl-1,2,4-triazol-1-yl)-2-azaspiro[3.3]heptan-2-yl]methanone]
0.12 | O=C(N1CC2(CC(Cc3cc(C(F)(F)F)n[nH]3)C2)C1)N1CC2(CC(c3cc(C4CC4)n[nH]3)C2)C1 [Example 297, [6-(3-cyclopropyl-1H-pyrazol-5-yl)-2-azaspiro[3.3]heptan-2-yl]-[6-[[3-(trifluoromethyl)-1H-pyrazol-5-yl]methyl]-2-azaspiro[3.3]heptan-2-yl]methanone]
117 | CC(C)(C)c1c[nH]c(CN2CC3(C2)CN(C(=O)N2CC4(CC(n5cnc(C(F)(F)F)n5)C4)C2)C3)n1 [Example 252, [6-[(4-tert-butyl-1H-imidazol-2-yl)methyl]-2,6-diazaspiro[3.3]heptan-2-yl]-[6-[3-(trifluoromethyl)-1,2,4-triazol-1-yl]-2-azaspiro[3.3]heptan-2-yl]methanone]
0.86 | O=C(N1CC2(CC(Cc3cnn(CC(F)(F)F)c3)C2)C1)N1CC2(CC(c3cc(C4CC4)n[nH]3)C2)C1 [Example 290, [6-(3-cyclopropyl-1H-pyrazol-5-yl)-2-azaspiro[3.3]heptan-2-yl]-[6-[[1-(2,2,2-trifluoroethyl)pyrazol-4-yl]methyl]-2-azaspiro[3.3]heptan-2-yl]methanone]
3.7 | O=C(N1CC2(CC(Cc3ncn(CC(F)(F)F)n3)C2)C1)N1CC2(CC(n3cnc(C4CC4)n3)C2)C1 [Example 339, [6-(3-cyclopropyl-1,2,4-triazol-1-yl)-2-azaspiro[3.3]heptan-2-yl]-[6-[[1-(2,2,2-trifluoroethyl)-1,2,4-triazol-3-yl]methyl]-2-azaspiro[3.3]heptan-2-yl]methanone]
96.5 | Cn1nnc(CN2CC3(C2)CN(C(=O)N2CC4(CC(n5cnc(C(F)(F)F)n5)C4)C2)C3)c1C(F)(F)F [Example 243, [6-[[1-methyl-5-(trifluoromethyl)triazol-4-yl]methyl]-2,6-diazaspiro[3.3]heptan-2-yl]-[6-[3-(trifluoromethyl)-1,2,4-triazol-1-yl]-2-azaspiro[3.3]heptan-2-yl]methanone]
18.5 | O=C(N1CC2(CC(n3cnc(C(F)(F)F)n3)C2)C1)N1CC2(CN(Cc3nc(C4CC4)cs3)C2)C1 [Example 239, [6-[(4-cyclopropylthiazol-2-yl)methyl]-2,6-diazaspiro[3.3]heptan-2-yl]-[6-[3-(trifluoromethyl)-1,2,4-triazol-1-yl]-2-azaspiro[3.3]heptan-2-yl]methanone]
42.8 | O=C(N1CC2(CC(n3cnc(C4CC4)n3)C2)C1)N1CC2(CN(Cc3nc[nH]c3C(F)(F)F)C2)C1 [Example 238, [6-(3-cyclopropyl-1,2,4-triazol-1-yl)-2-azaspiro[3.3]heptan-2-yl]-[6-[[5-(trifluoromethyl)-1H-imidazol-4-yl]methyl]-2,6-diazaspiro[3.3]heptan-2-yl]methanone]
368 | Cn1ncc(CN2CC3(C2)CN(C(=O)N2CC4(CC(n5cnc(C6CC6)n5)C4)C2)C3)c1S(N)(=O)=O [Example 251]
178 | O=C(N1CC2(CC(n3cnc(C(F)(F)F)n3)C2)C1)N1CC2(CN(Cc3ncoc3C(F)(F)F)C2)C1 [Example 220]
